Measurements as given in patent publication US9751837B2, “Kinase inhibitors” (RESPIVERT LIMITED, priority 2014, dated 2017).
In brackets after ≈: the same amount, converted by molar mass.

Tests used:
GSK 3α = GSK 3α (Homo sapiens (Human), UniProt P49840); assay: GSK 3α enzyme inhibition (Method 2), Z-LYTE FRET; assay type: biochemical; conditions: read-out: IC50 Values for Enzyme Inhibition GSK3α
Experimental: The enzyme inhibitory activities of compounds disclosed herein are determined by FRET using synthetic peptides labelled with both donor and acceptor fluorophores (Z-LYTE, Invitrogen Ltd., Paisley, UK).
The following two assay variants can be used for determination of GSK 3α inhibition.
The inhibitory activities of compounds of the invention against the GSK 3α enzyme isoform (Invitrogen), are evaluated by determining the level of activation/phosphorylation of the target peptide. The GSK3-α protein (500 ng/mL, 2.5 μL) is mixed with the test compound (2.5 μL at either 4 μg/mL, 0.4 μg/mL, 0.04 μg/mL, or 0.004 μg/mL) for 2 hr at RT. The FRET peptide (8 μM, 2.5 μL), which is a phosphorylation target for GSK3α, and ATP (40 μM, 2.5 μL) are then added to the enzyme/compound mixture and the resulting mixture incubated for 1 hr. Development reagent (protease, 5 μL) is added for 1 hr prior to detection in a fluorescence microplate reader (Varioskan® Flash, ThermoFisher Scientific).
In all cases, the site-specific protease cleaves non-phosphorylated peptide only and eliminates the FRET signal. Phosphorylation levels of each reaction are calculated using the ratio of coumarin emission (donor) over fluorescein emission (acceptor), for which high ratios indicate high phosphorylation and low ratios indicate low phosphorylation levels.
This method follows the same steps as Method 1 above, but utilises a shorter period of mixing of the test compound (105 minutes instead of 2 hours) with the GSK3-α protein. In addition, the concentrations of test compound employed are either 10 μg/mL, 1 μg/mL, 0.1 μg/mL, or 0.01 μg/mL

Jurkat cells = assay: Cell cytotoxicity assay (r); assay type: cell-based, human; conditions: 24 hours
Experimental: 1×10^5 Jurkat cells (immortalised human T lymphocytes) are added to the appropriate number of wells of a 96 well plate in 100 μL of media (RPMI supplemented with 10% foetal bovine serum). 1 μL of DMSO control (final concentration 1.0% v/v) or test compound (final concentration 20, 5 or 1 μg/mL) is added to the wells and incubated at 37° C., 5% CO2. After 24 hours, the plate is centrifuged at 1200 rpm for 3 minutes and the supernatant discarded. Cells are then resuspended in 150 μL (final concentration 7.5 μg/mL) of propidium iodide (PI) in PBS and incubated at 37° C., 5% CO2 for 15 minutes. After 15 minutes, cells are analysed by flow cytometry (BD accuri) using the FL3 window. The % viability is calculated as the % of cells that are PI negative in the test wells normalised to the DMSO control.

[1] = Solubility in fasted-state simulated colonic fluid (FaSSCoF) at pH 6.5; assay type: physicochemical; conditions: 25 °C, pH 6.5, fassgf or other biorelevant, thermodynamic from solid
How it was run: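 Compounds were suspended at up to 2-10 mg/mL in pH 6.5 Tris/maleate FaSSCoF containing a five-bile-acid mixture, phosphatidylcholine, palmitic acid and BSA. After 24 h equilibration at 25° C the suspension was filtered and the filtrate quantified by HPLC peak area against a standard.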

[2] = pH 6.5 FaSSCoF Solubility (mg/mL) Run 1
[3] = pH 6.5 FaSSCoF Solubility (mg/mL) Run 2

Sequence of GSK 3α (P49840 whole entry): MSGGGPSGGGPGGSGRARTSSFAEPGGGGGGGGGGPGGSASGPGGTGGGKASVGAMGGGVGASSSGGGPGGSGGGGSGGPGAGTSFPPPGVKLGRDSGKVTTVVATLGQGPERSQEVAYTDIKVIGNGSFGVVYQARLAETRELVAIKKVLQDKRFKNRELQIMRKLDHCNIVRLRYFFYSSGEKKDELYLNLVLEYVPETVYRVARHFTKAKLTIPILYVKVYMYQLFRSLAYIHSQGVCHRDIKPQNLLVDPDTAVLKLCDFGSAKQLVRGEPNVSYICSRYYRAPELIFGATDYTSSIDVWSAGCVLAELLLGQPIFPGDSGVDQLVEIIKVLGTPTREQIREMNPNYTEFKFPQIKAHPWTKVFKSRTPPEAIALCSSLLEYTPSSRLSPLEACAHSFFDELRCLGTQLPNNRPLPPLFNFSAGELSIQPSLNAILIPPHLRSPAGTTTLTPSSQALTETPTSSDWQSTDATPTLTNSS

In the case of `COc1cc(Nc2cc(Oc3ccc(NC(=O)Nc4cc(C(C)(C)C)cc(NS(C)(=O)=O)c4OC)c4ccccc34)ccn2)ccc1C(=O)NCCCN1CCN(C)CC1` [17(aa), 4-[[4-[[4-[[5-tert-butyl-3-(methanesulfonamido)-2-methoxy-phenyl]carbamoylamino]-1-naphthyl]oxy]-2-pyridyl]amino]-2-methoxy-N-[3-(4-methylpiperazin-1-yl)propyl]benzamide], the IC50 (GSK 3α) is reported as 2.93 µM.
For `COc1cc(Nc2cc(Oc3ccc(NC(=O)Nc4cc(C(C)(C)C)cc(NS(C)(=O)=O)c4OC)c4ccccc34)ccn2)ccc1C(=O)N(C)CCN1CCOCC1` [17(ab), 4-[[4-[[4-[[5-tert-butyl-3-(methanesulfonamido)-2-methoxy-phenyl]carbamoylamino]-1-naphthyl]oxy]-2-pyridyl]amino]-2-methoxy-N-methyl-N-(2-morpholinoethyl)benzamide], the IC50 (GSK 3α) was 0.596 µM.
With `COc1cc(Nc2cc(Oc3ccc(NC(=O)Nc4cc(C(C)(C)C)cc(NS(C)(=O)=O)c4OC)c4ccccc34)ccn2)ccc1C(=O)NCCN(C)CCO` [17(ac), 4-[[4-[[4-[[5-tert-butyl-3-(methanesulfonamido)-2-methoxy-phenyl]carbamoylamino]-1-naphthyl]oxy]-2-pyridyl]amino]-N-[2-[2-hydroxyethyl(methyl)amino]ethyl]-2-methoxy-benzamide] the IC50 (GSK 3α) was 3.02 µM.
`COc1cc(Nc2cc(Oc3ccc(NC(=O)Nc4cc(C(C)(C)C)cc(NS(C)(=O)=O)c4OC)c4ccccc34)ccn2)ccc1C(=O)NCCN1CCCOCC1` [17(ai), 4-[[4-[[4-[[5-tert-butyl-3-(methanesulfonamido)-2-methoxy-phenyl]carbamoylamino]-1-naphthyl]oxy]-2-pyridyl]amino]-2-methoxy-N-[2-(1,4-oxazepan-4-yl)ethyl]benzamide] showed an IC50 (GSK 3α) of 4.48 µM.
For `COc1cc(Nc2cc(Oc3ccc(NC(=O)Nc4cc(C(C)(C)C)cc(NS(C)(=O)=O)c4OC)c4ccccc34)ccn2)ccc1C(=O)NCCCN1CCCOCC1` [17(aj), 4-[[4-[[4-[[5-tert-butyl-3-(methanesulfonamido)-2-methoxy-phenyl]carbamoylamino]-1-naphthyl]oxy]-2-pyridyl]amino]-2-methoxy-N-[3-(1,4-oxazepan-4-yl)propyl]benzamide], the IC50 (GSK 3α) was 2.64 µM.
Molecule `COc1cc(Nc2cc(Oc3ccc(NC(=O)Nc4cc(C(C)(C)C)cc(NS(C)(=O)=O)c4OC)c4ccccc34)ccn2)ccc1C(=O)NCCN1CCC(F)(F)CC1` [17(al), 4-[[4-[[4-[[5-tert-butyl-3-(methanesulfonamido)-2-methoxy-phenyl]carbamoylamino]-1-naphthyl]oxy]-2-pyridyl]amino]-N-[2-(4,4-difluoro-1-piperidyl)ethyl]-2-methoxy-benzamide] has an IC50 (GSK 3α) of 11.8 µM.
Molecule `COc1cc(Nc2cc(Oc3ccc(NC(=O)Nc4cc(C(C)(C)C)cc(NS(C)(=O)=O)c4OC)c4ccccc34)ccn2)ccc1C(=O)NCCN1C[C@@H](C)O[C@@H](C)C1` [17(c), 4-[[4-[[4-[[5-tert-butyl-3-(methanesulfonamido)-2-methoxy-phenyl]carbamoylamino]-1-naphthyl]oxy]-2-pyridyl]amino]-N-[2-[(2S,6R)yl]ethyl]-2-methoxy-benzamide] has an IC50 (GSK 3α) greater than 11.9 µM.
Work on `COc1cc(Nc2cc(Oc3ccc(NC(=O)Nc4cc(C(C)(C)C)cc(NS(C)(=O)=O)c4OC)c4ccccc34)ccn2)ccc1C(=O)NCCN1CCOC(C)(C)C1` [17(d), 4-[[4-[[4-[[5-tert-butyl-3-(methanesulfonamido)-2-methoxy-phenyl]carbamoylamino]-1-naphthyl]oxy]-2-pyridyl]amino]-N-[2-(2,2-dimethylmorpholin-4-yl)ethyl]-2-methoxy-benzamide] yielded an IC50 (GSK 3α) greater than 11.9 µM.
With `COc1cc(Nc2cc(Oc3ccc(NC(=O)Nc4cc(C(C)(C)C)cc(NS(C)(=O)=O)c4OC)c4ccccc34)ccn2)ccc1C(=O)NCC(=O)N1CCOCC1` [17(e), 4-[[4-[[4-[[5-tert-butyl-3-(methanesulfonamido)-2-methoxy-phenyl]carbamoylamino]-1-naphthyl]oxy]-2-pyridyl]amino]-2-methoxy-N-(2-morpholino-2-oxo-ethyl)benzamide] the IC50 (GSK 3α) was 7.42 µM.
For `COc1cc(Nc2cc(Oc3ccc(NC(=O)Nc4cc(C(C)(C)C)cc(NS(C)(=O)=O)c4OC)c4ccccc34)ccn2)ccc1C(=O)NCCN1CCCN(C)CC1` [17(f), 4-[[4-[[4-[[5-tert-butyl-3-(methanesulfonamido)-2-methoxy-phenyl]carbamoylamino]-1-naphthyl]oxy]-2-pyridyl]amino]-2-methoxy-N-[2-(4-methyl-1,4-diazepan-1-yl)ethyl]benzamide], the IC50 (GSK 3α) was 1.09 µM.
`COCCOCCOC[C@@H](C)NC(=O)c1ccc(Nc2cc(Oc3ccc(NC(=O)Nc4cc(C(C)(C)C)cc(NS(C)(=O)=O)c4OC)c4ccccc34)ccn2)cc1OC` [17(g), 4-[[4-[[4-[[5-tert-butyl-3-(methanesulfonamido)-2-methoxy-phenyl]carbamoylamino]-1-naphthyl]oxy]-2-pyridyl]amino]-2-methoxy-N-[(1R)-2-[2-(2-methoxyethoxy)ethoxy]-1-methyl-ethyl]benzamide] showed an IC50 (GSK 3α) of 4.1 µM.
Molecule `COCCOCCOC[C@H](C)NC(=O)c1ccc(Nc2cc(Oc3ccc(NC(=O)Nc4cc(C(C)(C)C)cc(NS(C)(=O)=O)c4OC)c4ccccc34)ccn2)cc1OC` [17(h), 4-[[4-[[4-[[5-tert-butyl-3-(methanesulfonamido)-2-methoxy-phenyl]carbamoylamino]-1-naphthyl]oxy]-2-pyridyl]amino]-2-methoxy-N-[(1S)-2-[2-(2-methoxyethoxy)ethoxy]-1-methyl-ethyl]benzamide] has an IC50 (GSK 3α) of 4.39 µM.
For `COc1cc(Nc2cc(Oc3ccc(NC(=O)Nc4cc(C(C)(C)C)cc(NS(C)(=O)=O)c4OC)c4ccccc34)ccn2)ccc1-n1ccccc1=O` [Example 31, N-(5-(tert-Butyl)-2-methoxy-3-(3-(4-((2-((3-methoxy-4-(2-oxopyridin-1(2H)-yl)phenyl)amino)-pyridin-4-yl)oxy)naphthalen-1-yl)ureido)phenyl)methanesulfonamide], the “% Viability at 20 μg/mL” value (Jurkat cells) was 99.0%, the solubility thermodynamic at 24 h [1, 2] was 3 µg/mL (≈ 4.01 µM) and the solubility thermodynamic at 24 h [1, 3] was 3 µg/mL (≈ 4.01 µM).
For `COc1cc(Nc2cc(Oc3ccc(NC(=O)Nc4cc(C(C)(C)C)cc(NS(C)(=O)=O)c4OC)c4ccccc34)ccn2)ccc1C(=O)NCC(CO)(CO)CO` [Example 38, 4-((4-((4-(3-(5-(tert-Butyl)-2-methoxy-3-(methylsulfonamido)phenyl)ureido)naphthalen-1-yl)oxy)pyridin-2-yl)amino)-N-(3-hydroxy-2,2-bis(hydroxymethyl)propyl)-2-methoxybenzamide], the “% Viability at 1 μg/mL” value (Jurkat cells; 1 μg/mL) was 90.0%, the “% Viability at 20 μg/mL” value (Jurkat cells) was 6.0% and the solubility thermodynamic at 24 h [1, 2] was 14 µg/mL (≈ 17.1 µM). For the same molecule, the solubility thermodynamic at 24 h [1, 3] was 12 µg/mL (≈ 14.7 µM).
For `COc1cc(Nc2cc(Oc3ccc(NC(=O)Nc4cc(C(C)(C)C)cc(NS(C)(=O)=O)c4OC)c4ccccc34)ccn2)cc(OC)c1C(=O)NCCN(C)C` [Example 39, 4-((4-((4-(3-(5-(tert-Butyl)-2-methoxy-3-(methylsulfonamido)phenyl)ureido)naphthalen-1-yl)oxy)pyridin-2-yl)amino)-N-(2-(dimethylamino)ethyl)-2,6-dimethoxybenzamide], the “% Viability at 20 μg/mL” value (Jurkat cells) was 1.5%, the solubility thermodynamic at 24 h [1, 2] was 222 µg/mL (≈ 278 µM) and the solubility thermodynamic at 24 h [1, 3] was 247 µg/mL (≈ 309 µM). It also gave a solubility thermodynamic at 24 h ([1]; pH 6.5 FaSSCoF Solubility (mg/mL) Run 3) of 73 µg/mL (≈ 91.3 µM) and a solubility thermodynamic at 24 h ([1]; pH 6.5 FaSSCoF Solubility (mg/mL) Run 4) of 97 µg/mL (≈ 121 µM).
In the case of `COc1cc(Nc2cc(Oc3ccc(NC(=O)Nc4cc(C(C)(C)C)cc(NS(C)(=O)=O)c4OC)c4ccccc34)ccn2)ccc1S(=O)(=O)CC(CO)(CO)CO` [Example 45, N-(5-(tert-Butyl)-3-(3-(4-((2-((4-((3-hydroxy-2,2-bis(hydroxymethyl)propyl)sulfonyl)-3-methoxyphenyl)amino)pyridin-4-yl)oxy)naphthalen-1-yl)ureido)-2-methoxyphenyl)-methanesulfonamide], the “% Viability at 20 μg/mL” value (Jurkat cells) is reported as 9.8%, the solubility thermodynamic at 24 h [1, 2] is reported as 5 µg/mL (≈ 5.97 µM) and the solubility thermodynamic at 24 h [1, 3] is reported as 5 µg/mL (≈ 5.97 µM).
